Values of other authors in PMC7114426 (Virus Research, 2012).

Test system: nsp16
For `O=C(O)C1=CC(=C(c2ccc(O)c(C(=O)O)c2)c2ccc(O)c(C(=O)O)c2)C=CC1=O` [ATA, aurintricarboxylic acid], the “inhibition of the MTase activity of nsp16” value (shortened to “inhibition”) is listed as “inhibit the MTase activity of nsp16”. For `Nc1ncnc2c1ncn2[C@@H]1O[C@H](C[C@@H](N)CC[C@H](N)C(=O)O)[C@@H](O)[C@H]1O` [sinefungin], the “inhibition” value is given as “inhibit the MTase activity of nsp16”. In the case of `Nc1ncnc2c1ncn2[C@@H]1O[C@H](CSCC[C@H](N)C(=O)O)[C@@H](O)[C@H]1O` [SAH, S-adenosyl-l-homocysteine], the “inhibition” value is given as “inhibit the MTase activity of nsp16”.
